According to article PMC11906403, “Anti-lymphoma peptide is inspired by mapping a sequence of four amino acids of KRAI motif as nuclear localization signal of Crlz-1” (Molecular Therapy Oncology, 2025):
Where two headings read alike, the source gives them in different places. Where no end group is shown, it is not given here.

What was measured:
[1] = test system: Ramos cells; type: cell-based, human
Source text: (§1) Ramos (CRL-1596; American Type Culture Collection [ATCC]) is a human cell line of GC centroblast-derived BCL that was isolated from a Burkitt’s lymphoma patient, and Daudi (CCL-213; ATCC) is another human BCL cell line of Burkitt’s type. The control human cell lines of K562 (CCL-243; ATCC) and THP-1 (TIB-202; ATCC) wre originated from myelogenous and monocytic leukemia patients, respectively. NIH3T3 (CRL-1658; ATCC) is a mouse cell line of fibroblasts. […] Cells were counted on a hemocytometer (Neubauer; Marienfeld) after staining their aliquot with an equal volume of 0.4% trypan blue solution. All of the cell culture media and their supplements were purchased from Gibco (Thermo Fisher Scientific).
Stock solutions of various peptides, whose syntheses were custom ordered from GenScript via Koma Biotech in Korea, were first prepared by dissolving the lyophilized powder in PBS. Then, their aliquots were serially diluted with PBS to reach the final concentrations required for the experiments. […] To chase the effect of peptide transfection on the cellular proliferation, cells were counted daily on a hemocytometer by staining their aliquot with an equal volume of 0.4% trypan blue solution and finally harvested to analyze the effects of transfected peptide on various molecular events such as protein localization, transcription factor binding, gene expression, and rRNA production. […]

[2] = test system: Ramos, Daudi, K562 and THP-1 cells
Experimental: (§2) For a 2-mL culture of cells in each well of a 6-well plate, 7 μL peptide solution in a concentration of 10 μg/μL in PBS was added directly to the culture media, which were RPMI-1640 supplemented with fetal bovine serum (10%), L-glutamine (1×), nonessential amino acids (1×), penicillin/streptomycin (1×), and 2-mercaptoethanol (50 μM), but not sodium pyruvate. The intrinsic cell membrane permeability of peptide with its N-terminally conjugated FAM fluorophore was checked by observing the peptide-treated cells in a confocal fluorescence microscope (Zeiss) after mounting the washed cells on a microscope slide with a cover glass. It was important that the treated cells be washed well, for example, five times with warm PBS-T (0.01% Tween 20) to remove any nonspecifically adsorbed FAM fluorophore-conjugated peptides. Various custom-ordered peptides with or without the conjugated FAM fluorophore to be used for this direct addition to the cells in culture media as well as for their intravenous injection to the xenografted nude mice as described below were prepared as mentioned above.

[3] = test system: Ramos cells; type: cell-based, human; details: control peptides added directly to culture media without sodium pyruvate (Figure 6A)
Source text: as §1

[4] = test system: Daudi cells; type: cell-based, human; details: control peptides added directly to culture media without sodium pyruvate (Figure 6B)
Source text: as §1

[5] = test system: Ramos, Daudi, K562 and THP-1 cells; test: Intrinsic cell membrane permeability of FAM-conjugated peptides added directly to culture media (confocal fluorescence microscopy); details: for intrinsic cell membrane permeability: FAM fluorophore-labeled peptides added directly to Ramos, Daudi, K562 and THP-1 cells in culture media, cells washed with PBS-T, confocal fluorescence (Figure 6); for cell membrane permeability: N-terminally FAM-conjugated peptide added directly to culture media, confocal fluorescence (Figure 5A)
Experimental: as §2

| Compound | intrinsic cell membrane permeability [2] | proliferation of Crlz-1+ Ramos cells inhibited [3] | proliferation of Crlz-1+ Daudi cells inhibited [4] | intrinsic cell membrane permeability [5] | cell membrane permeability ([5]; absence of sodium pyruvate) | also measured |
| --- | --- | --- | --- | --- | --- | --- |
| O=C([O-])CCN1C(=O)/C(=C/c2ccc(-c3ccc([N+](=O)[O-])cc3)o2)SC1=S.[K+] [KYA1797K] | – | – | – | – | – | saturation concentration for cell growth inhibition ([1]; titration in Xfect transfection/treatment of Ramos cells, in the absence of any cell death (Figures 2D, 2E)): 5.5 µg/mL |
| ADEAIT [negatively charged control peptide] | no such intrinsic cell membrane permeability | not | not | – | – | – |
| AKRAIT [AKRAIT] | – | – | – | intrinsic cell membrane permeabilities | intrinsically membrane permeable | death of transfected cells [1]: not observed |
| AVGAGT [AVGAGT] | – | – | – | intrinsic cell membrane permeabilities | permeable through the membrane regardless of sodium pyruvate | cell membrane permeability ([5]; presence of sodium pyruvate): permeable through the membrane regardless of sodium pyruvate |
| TIARKA | intrinsic cell membrane permeabilities | not | not | – | – | – |
